According to article PMC7766161, “PARP Theranostic Auger Emitters Are Cytotoxic in BRCA Mutant Ovarian Cancer and Viable Tumors from Ovarian Cancer Patients Enable Ex-Vivo Screening of Tumor Response” (Molecules, 2020):

Biological target: T1, PARP-1 (Homo sapiens, UniProt P09874)
T1 construct: gene PARP1
Assay: saturation radioligand binding in OVCAR8 wt cells (nonspecific binding with […] veliparib)
Format: cell-based

T1 sequence (P09874 2-1014): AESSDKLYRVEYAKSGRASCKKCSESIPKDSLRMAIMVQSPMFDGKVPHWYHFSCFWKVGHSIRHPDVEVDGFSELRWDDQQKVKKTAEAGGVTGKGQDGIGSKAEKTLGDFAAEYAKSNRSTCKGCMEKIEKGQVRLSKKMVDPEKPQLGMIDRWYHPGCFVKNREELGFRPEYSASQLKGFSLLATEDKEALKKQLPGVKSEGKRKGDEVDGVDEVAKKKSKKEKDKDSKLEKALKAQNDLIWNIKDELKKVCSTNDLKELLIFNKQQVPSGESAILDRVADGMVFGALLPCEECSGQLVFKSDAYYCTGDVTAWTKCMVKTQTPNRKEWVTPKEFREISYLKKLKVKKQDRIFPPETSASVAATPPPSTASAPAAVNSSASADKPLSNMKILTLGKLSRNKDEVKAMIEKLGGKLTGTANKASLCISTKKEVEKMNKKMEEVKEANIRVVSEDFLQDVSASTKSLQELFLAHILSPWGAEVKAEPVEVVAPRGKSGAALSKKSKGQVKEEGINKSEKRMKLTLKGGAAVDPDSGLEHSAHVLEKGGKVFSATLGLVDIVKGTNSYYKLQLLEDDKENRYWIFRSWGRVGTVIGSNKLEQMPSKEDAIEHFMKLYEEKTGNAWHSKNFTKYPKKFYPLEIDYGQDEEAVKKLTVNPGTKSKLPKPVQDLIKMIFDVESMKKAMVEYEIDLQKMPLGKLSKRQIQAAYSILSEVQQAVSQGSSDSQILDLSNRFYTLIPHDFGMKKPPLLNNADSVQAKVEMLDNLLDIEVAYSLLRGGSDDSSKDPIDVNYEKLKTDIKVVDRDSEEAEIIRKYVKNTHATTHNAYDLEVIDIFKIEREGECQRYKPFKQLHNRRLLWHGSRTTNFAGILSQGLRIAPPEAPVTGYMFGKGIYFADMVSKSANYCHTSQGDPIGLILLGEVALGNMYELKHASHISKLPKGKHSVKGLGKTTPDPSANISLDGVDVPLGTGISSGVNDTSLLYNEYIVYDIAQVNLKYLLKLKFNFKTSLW

- Kd: 7.7 nM
Substance: [125I]KX1
